Data on 37 compounds can be found in ChEMBL document CHEMBL3039007, “Structure-based identification of OATP1B1/3 inhibitors” (Mol Pharmacol, 2013).

Each structure is given as a SMILES string.

Series [1] concerns the target T1, Solute carrier organic anion transporter family member 1B1 (Homo sapiens, UniProt Q9Y6L6).
T1 sequence (Q9Y6L6 whole entry): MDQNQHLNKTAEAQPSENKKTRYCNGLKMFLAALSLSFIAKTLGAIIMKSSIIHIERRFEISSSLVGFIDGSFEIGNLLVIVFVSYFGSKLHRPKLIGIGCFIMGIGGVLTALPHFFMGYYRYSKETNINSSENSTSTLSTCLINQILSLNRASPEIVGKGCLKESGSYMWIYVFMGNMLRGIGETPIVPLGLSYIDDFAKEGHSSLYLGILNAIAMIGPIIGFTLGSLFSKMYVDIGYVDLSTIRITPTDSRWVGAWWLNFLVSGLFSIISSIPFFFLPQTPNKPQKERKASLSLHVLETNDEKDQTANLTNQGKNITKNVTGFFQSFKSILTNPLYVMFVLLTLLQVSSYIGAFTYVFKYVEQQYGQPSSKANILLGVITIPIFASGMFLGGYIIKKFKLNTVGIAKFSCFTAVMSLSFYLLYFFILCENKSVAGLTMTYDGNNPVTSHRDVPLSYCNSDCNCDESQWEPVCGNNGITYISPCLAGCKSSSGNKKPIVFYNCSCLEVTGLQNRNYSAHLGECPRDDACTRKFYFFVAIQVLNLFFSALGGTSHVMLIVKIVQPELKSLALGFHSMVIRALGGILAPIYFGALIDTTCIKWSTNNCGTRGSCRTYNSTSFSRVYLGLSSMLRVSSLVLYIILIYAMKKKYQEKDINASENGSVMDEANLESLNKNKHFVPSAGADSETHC
The conditions noted are these: chinese hamster, cho, 10 µM.

For series [2], the target named is T2, Solute carrier organic anion transporter family member 1B3 (Homo sapiens, UniProt Q9NPD5).
T2 sequence (Q9NPD5 whole entry): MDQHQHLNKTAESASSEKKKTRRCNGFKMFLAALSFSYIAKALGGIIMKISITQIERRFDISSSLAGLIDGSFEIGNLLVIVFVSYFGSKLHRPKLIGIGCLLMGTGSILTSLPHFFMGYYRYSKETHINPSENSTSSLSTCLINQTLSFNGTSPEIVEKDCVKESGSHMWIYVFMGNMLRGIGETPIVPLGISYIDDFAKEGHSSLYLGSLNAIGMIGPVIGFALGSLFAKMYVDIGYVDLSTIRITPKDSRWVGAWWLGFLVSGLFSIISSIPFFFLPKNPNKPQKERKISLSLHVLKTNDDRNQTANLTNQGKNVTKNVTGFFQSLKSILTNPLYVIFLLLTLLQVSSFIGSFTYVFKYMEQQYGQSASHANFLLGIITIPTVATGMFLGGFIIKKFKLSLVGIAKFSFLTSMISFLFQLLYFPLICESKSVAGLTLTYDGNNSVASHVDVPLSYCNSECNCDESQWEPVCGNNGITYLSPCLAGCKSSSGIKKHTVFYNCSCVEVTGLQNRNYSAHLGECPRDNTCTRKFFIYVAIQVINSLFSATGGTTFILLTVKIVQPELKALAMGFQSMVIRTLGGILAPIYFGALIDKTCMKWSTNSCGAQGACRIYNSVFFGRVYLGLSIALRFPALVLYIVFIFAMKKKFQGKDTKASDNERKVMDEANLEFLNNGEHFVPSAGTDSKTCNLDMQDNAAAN
The conditions noted are these: chinese hamster, cho, 10 µM.

On to `CCCC(C(=O)OCCN(CC)CC)(c1ccccc1)c1ccccc1.Cl` [PROADIFEN HYDROCHLORIDE], for which the figures for the residual activity in series [1] and in series [2] were 36.21% and 53.55%, respectively.
Take `CCCN(CCC)S(=O)(=O)c1ccc(C(=O)O)cc1` [PROBENECID]: the results for the residual activity in series [1] and in series [2] were 81.99% and 89.44%, respectively.
The corresponding values for `CC(C)(Sc1cc(C(C)(C)C)c(O)c(C(C)(C)C)c1)Sc1cc(C(C)(C)C)c(O)c(C(C)(C)C)c1` [PROBUCOL] are 102.2% and 90.56%.
The corresponding values for `CCN(CC)CCNC(=O)c1ccc(N)cc1.Cl` [PROCAINAMIDE HYDROCHLORIDE] are 81.68% and 104.4%.
For `CCN(CC)CCOC(=O)c1ccc(N)cc1.Cl` [PROCAINE HYDROCHLORIDE], the residual activity amounted to 104.1% in series [1] and 104.2% in series [2].
Regarding `CC(=O)[C@H]1CC[C@H]2[C@@H]3CCC4=CC(=O)CC[C@]4(C)[C@H]3CC[C@]12C` [PROGESTERONE], the results for the residual activity in series [1] and in series [2] were 52.43% and 92%, respectively.
Taken in the same sequence, the figures for `CCCN(CCC)C(=O)C(CCC(=O)O)NC(=O)c1ccccc1` (centres undefined) [PROGLUMIDE] were 105% and 104.8%.
Taken in the same sequence, the figures for `CC(C)NC(=N)NC(=N)Nc1ccc(Cl)cc1.Cl` [PROGUANIL HYDROCHLORIDE] were 77.71% and 114.8%.
The corresponding values for `CN(C)CCCN1c2ccccc2Sc2ccccc21.Cl` [PROMAZINE HYDROCHLORIDE] are 82.72% and 81.19%.
In the case of `CC(CN1c2ccccc2Sc2ccccc21)N(C)C.Cl` (centres undefined) [PROMETHAZINE HYDROCHLORIDE], the residual activity was found to be 69.15% in series [1] and 86.93% in series [2].
Take `COc1nc(NC(C)C)nc(NC(C)C)n1` [PROMETON]: the residual activity in series [1] came out at 114.4%; in series [2] it was 102.5%.
Turning to `CSc1nc(NC(C)C)nc(NC(C)C)n1` [PROMETRYN], the residual activity in series [1] is on record as 175.4%; in series [2] it was 86.3%.
The corresponding values for `CC(C)N(C(=O)CCl)c1ccccc1` [PROPACHLOR] are 110.8% and 110.5%.
With `CCC(=O)Nc1ccc(Cl)c(Cl)c1` [PROPANIL], the residual activity is listed as 92.07% in series [1] and 115.2% in series [2].
Consider `CC(C)[N+](C)(CCOC(=O)C1c2ccccc2Oc2ccccc21)C(C)C.[Br-]` [PROPANTHELINE BROMIDE], for which the residual activity in series [1] and in series [2] was 110.4% throughout.
In the case of `C#CCOS(=O)OC1CCCCC1Oc1ccc(C(C)(C)C)cc1` (centres undefined) [PROPARGITE], the residual activity is on record as 93.31% in series [1] and 106% in series [2].
As to `CC(C)Nc1nc(Cl)nc(NC(C)C)n1` [PROPAZINE], the residual activity in series [1] was 110.4%; in series [2], 91.55%.
Taken in the same sequence, the figures for `CCCn1cnc2c1c(=O)n(CCCCC(C)=O)c(=O)n2C` [PROPENTOFYLLINE] were 126.3% and 110.4%.
Taken in the same sequence, the figures for `CNC(=O)Oc1ccccc1OC(C)C` [PROPOXUR] were 104% and 109.6%.
Taken in the same sequence, the figures for `CC(C)NCC(O)COc1cccc2ccccc12.Cl` (centres undefined) [PROPRANOLOL HYDROCHLORIDE] were 59.88% and 95.98%.
In the case of `CCCc1cc(=O)[nH]c(=S)[nH]1` [PROPYLTHIOURACIL], the residual activity turned out to be 79.91% in series [1] and 90.71% in series [2].
Taken in the same sequence, the figures for `C=CC1=C(C)c2cc3[nH]c(cc4nc(cc5[nH]c(cc1n2)c(C)c5CCC(=O)O)C(CCC(=O)O)=C4C)c(C)c3C=C` [PROTOPORPHYRIN] were 49.56% and 94.63%.
The corresponding values for `CC[C@@H](C)C(=O)O[C@H]1[C@H](O)[C@H]2[C@@H](CN3C[C@@H](C)CC[C@H]3[C@@]2(C)O)[C@@H]2C[C@]34O[C@]5(O)[C@@H](OC(=O)[C@@](C)(O)CC)CC[C@@]3(C)[C@@H]5[C@@H](OC(C)=O)[C@@H](OC(C)=O)[C@H]4[C@@]21O` [PROTOVERATRINE A] are 93.58% and 77.86%.
Taken in the same sequence, the figures for `CC[C@@H](C)C(=O)O[C@H]1[C@H](O)[C@H]2[C@@H](CN3C[C@@H](C)CC[C@H]3[C@@]2(C)O)[C@@H]2C[C@]34O[C@]5(O)[C@@H](OC(=O)[C@](C)(O)[C@@H](C)O)CC[C@@]3(C)[C@@H]5[C@@H](OC(C)=O)[C@@H](OC(C)=O)[C@H]4[C@@]21O` [PROTOVERATRINE B] were 114.4% and 125.5%.
Regarding `CN[C@@H](C)[C@@H](O)c1ccccc1.Cl` [PSEUDOEPHEDRINE HYDROCHLORIDE], the residual activity in series [1] was 86.1%; in series [2] it was 102.7%.
The corresponding values for `CC1=CCc2c(cc3oc(C)cc(=O)c3c2O)OC1` [PTAEROXYLIN] are 104.1% and 109.4%.
Taken in the same sequence, the figures for `Nc1nc2ncc(C(=O)O)nc2c(=O)[nH]1` [PTERIN-6-CARBOXYLIC ACID] were 102.1% and 99.97%.
The corresponding values for `C/C=C(/C)C(=O)O[C@@H]1c2c(ccc3ccc(=O)oc23)OC(C)(C)[C@@H]1OC(C)=O` [PTERYXIN] are 84.8% and 114.3%.
Consider `COc1ccc(C[C@H](N)C(=O)N[C@H]2[C@@H](O)[C@H](n3cnc4c(N(C)C)ncnc43)O[C@@H]2CO)cc1.Cl.Cl` [PUROMYCIN HYDROCHLORIDE], for which the residual activity in series [1] was determined as 95.86%; in series [2], 116.6%.
Taken in the same sequence, the figures for `O=C1c2ccccc2C(=O)c2c(O)c(O)cc(O)c21` [PURPURIN] were 100.1% and 98.68%.
Taken in the same sequence, the figures for `O=c1c(O)cccc2cc(O)c(O)c(O)c12` [PURPUROGALLIN] were 65.05% and 82.24%.
Taken in the same sequence, the figures for `Cl.Cl.NCCCCN` [PUTRESCINE DIHYDROCHLORIDE] were 110.3% and 106.7%.
As to `CN1CCCN=C1/C=C/c1cccs1.O=C(O)c1cc2ccccc2c(Cc2c(O)c(C(=O)O)cc3ccccc23)c1O` [PYRANTEL PAMOATE], the residual activity in series [1] was 31.41%; in series [2], 34.84%.
Taken in the same sequence, the figures for `NC(=O)c1cnccn1` [PYRAZINAMIDE] were 79.24% and 116.6%.
Taken in the same sequence, the figures for `CN(C)C(=O)Oc1ccc[n+](C)c1.[Br-]` [PYRIDOSTIGMINE BROMIDE] were 96.49% and 112%.
`COc1ccc(CN(CCN(C)C)c2ccccn2)cc1.O=C(O)/C=C\C(=O)O` [PYRILAMINE MALEATE]: the residual activity in series [1] stood at 68.75%; in series [2] it was 101.4%.
Taken in the same sequence, the figures for `CCc1nc(N)nc(N)c1-c1ccc(Cl)cc1` [PYRIMETHAMINE] were 72.59% and 107.4%.

Broadly, the residual activity is the signal under treatment as a percentage of the control signal.
